What was measured:
FAAH [1] = target: T1, FAAH (Rattus norvegicus, UniProt P97612); experiment: FAAH inhibition in vitro, crude rat brain homogenate with [3H]anandamide; assay type: biochemical
T1 construct: from tissue; host or cells: liver of SHR and WKY rats treated in vivo
T1 sequence (P97612 1-579): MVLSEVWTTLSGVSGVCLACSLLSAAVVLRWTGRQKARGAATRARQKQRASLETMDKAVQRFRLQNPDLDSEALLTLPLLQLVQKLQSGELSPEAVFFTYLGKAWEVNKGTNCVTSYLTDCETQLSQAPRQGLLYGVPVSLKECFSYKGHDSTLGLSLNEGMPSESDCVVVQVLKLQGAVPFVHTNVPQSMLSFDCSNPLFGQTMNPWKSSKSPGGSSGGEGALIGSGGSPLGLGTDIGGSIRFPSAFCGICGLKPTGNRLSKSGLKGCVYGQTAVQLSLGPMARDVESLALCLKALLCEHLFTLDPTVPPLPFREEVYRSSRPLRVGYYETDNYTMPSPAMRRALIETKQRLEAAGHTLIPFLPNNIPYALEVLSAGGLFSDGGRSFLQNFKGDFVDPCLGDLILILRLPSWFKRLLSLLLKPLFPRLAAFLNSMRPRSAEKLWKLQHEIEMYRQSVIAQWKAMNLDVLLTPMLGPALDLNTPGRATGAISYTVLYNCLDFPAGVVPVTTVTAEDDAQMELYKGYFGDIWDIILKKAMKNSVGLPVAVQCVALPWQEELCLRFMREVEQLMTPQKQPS
Procedure: This example describes a general method for assaying FAAH inhibition by the disclosed compounds and determining their IC50 values in vitro (Deutsch, D. G. and S. A. Chin, Biochem. Pharmacol. 46:791-796 (1993)). The indicated amount of each compound was preincubated in a buffer consisting of 300 μg of crude rat brain homogenate protein, 500 μg/ml fatty acid-free bovine serum albumin, in phosphate-buffered saline in a final volume of 1.0 ml, for 10 minutes at 37° C. Crude rat brain homogenate was obtained by decapitating female adult Sprague-Dawley rats, dissecting the desired tissue and homogenizing in five volumes of ice-cold TE (10 mM Tris-HCl, 1 mM EDTA, pH 7.6). Substrate ([…] anandamide+0.2 µCi of 221 Ci/mmol [^3H]anandamide ([arachidonyl-5,6,8,9,11,12,14,15-^3H]ethanolamide)) was then added and the samples incubated for 10 minutes. The reaction was quenched by the addition of chloroform:methanol (1:1) and enzyme activity was analyzed by TLC.

CB1 cannabinoid receptor = CB1 cannabinoid receptor (Homo sapiens, UniProt P21554); experiment: Affinity for the CB1 cannabinoid receptor; assay type: binding
CB2 cannabinoid receptor = CB2 cannabinoid receptor (Homo sapiens, UniProt P34972); experiment: Affinity for the CB2 cannabinoid receptor; assay type: binding
conscious SHR = experiment: Blood pressure and heart rate in conscious SHR; assay type: in vivo, rat; conditions: versus dosage
FAAH [2] = target: T2, FAAH (Mus musculus, UniProt O08914); experiment: FAAH activity in brain and liver homogenates following in vivo administration; parameters: species or system mice
T2 construct: the brain and liver removed, and tissue homogenates prepared as described above; from tissue; host or cells: mouse brain and liver homogenates after in vivo dosing
T2 sequence (O08914 1-579): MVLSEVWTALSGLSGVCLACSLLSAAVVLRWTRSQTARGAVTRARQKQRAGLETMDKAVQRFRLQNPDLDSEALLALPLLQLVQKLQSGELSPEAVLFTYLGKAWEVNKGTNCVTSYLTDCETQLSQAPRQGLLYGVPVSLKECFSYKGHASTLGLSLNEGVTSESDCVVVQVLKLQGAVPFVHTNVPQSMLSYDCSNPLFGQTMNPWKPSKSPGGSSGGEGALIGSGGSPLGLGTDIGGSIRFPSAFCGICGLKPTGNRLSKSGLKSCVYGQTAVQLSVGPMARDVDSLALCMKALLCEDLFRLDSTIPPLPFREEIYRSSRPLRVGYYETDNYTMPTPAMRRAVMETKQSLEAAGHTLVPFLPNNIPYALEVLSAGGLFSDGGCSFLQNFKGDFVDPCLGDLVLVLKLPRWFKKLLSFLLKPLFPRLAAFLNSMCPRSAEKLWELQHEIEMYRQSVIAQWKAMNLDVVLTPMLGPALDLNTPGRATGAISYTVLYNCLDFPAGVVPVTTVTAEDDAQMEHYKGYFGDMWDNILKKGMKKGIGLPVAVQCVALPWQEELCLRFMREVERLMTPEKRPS
Procedure: For the experiments illustrated in FIG. 3, FAAH activity was assessed through a different method not requiring TLC separation, as described by Jonsson et al: Br. J. Pharmacol. 133:1263-1275, 1997. […] The mice were sacrificed one hour later, the brain and liver removed, and tissue homogenates prepared as described above. [^3H]Anandamide labeled on the ethanolamide moiety was added to the homogenate and incubated at 37° C. for 10 min. The homogenate was then extracted twice with chloroform:methanol 1:1 and the radioactivity in the aqueous phase (containing the released ethanolamide) was counted.

FAAH [3] = target: T1, FAAH; experiment: Hepatic FAAH activity in SHR and WKY after i.p. treatment; assay type: in vivo; conditions: AM3506 1 mg/kg, n=3-5
[4] = test system: male DIO mice (wild-type C57Bl6/J on high-fat diet); experiment: Intraperitoneal glucose tolerance test in wild-type mice with diet-induced obesity; assay type: in vivo; conditions: AM3506 1 mg/kg i.p., 60 min before glucose 1.5 g/kg i.p., 1 mg/kg
Procedure: Male C57Bl6/J mice, wild-type or liver-specific CB1 receptor knockout, were kept on a diet containing 60% of calories as fat (Research Diets Inc) for 14 weeks, by which time both strains have become fat due to increased adipose mass. […] Sixty minutes later the mice received 1.5 g/kg glucose i.p. and blood glucose levels were monitored for 2 hours.

Sequence of CB1 cannabinoid receptor (P21554 whole entry): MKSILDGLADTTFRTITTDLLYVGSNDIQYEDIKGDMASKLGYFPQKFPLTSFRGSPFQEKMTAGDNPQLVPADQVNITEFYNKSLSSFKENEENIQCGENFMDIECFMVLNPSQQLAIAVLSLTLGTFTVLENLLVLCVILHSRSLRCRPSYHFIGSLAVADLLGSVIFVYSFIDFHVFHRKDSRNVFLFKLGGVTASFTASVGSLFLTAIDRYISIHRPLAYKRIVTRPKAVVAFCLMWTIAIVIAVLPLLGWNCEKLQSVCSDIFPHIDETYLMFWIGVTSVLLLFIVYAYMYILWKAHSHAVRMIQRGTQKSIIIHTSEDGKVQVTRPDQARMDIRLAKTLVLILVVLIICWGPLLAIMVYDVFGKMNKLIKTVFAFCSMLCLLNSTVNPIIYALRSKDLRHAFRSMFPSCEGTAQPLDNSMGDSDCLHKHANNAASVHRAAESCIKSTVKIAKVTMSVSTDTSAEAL
Sequence of CB2 cannabinoid receptor (P34972 whole entry): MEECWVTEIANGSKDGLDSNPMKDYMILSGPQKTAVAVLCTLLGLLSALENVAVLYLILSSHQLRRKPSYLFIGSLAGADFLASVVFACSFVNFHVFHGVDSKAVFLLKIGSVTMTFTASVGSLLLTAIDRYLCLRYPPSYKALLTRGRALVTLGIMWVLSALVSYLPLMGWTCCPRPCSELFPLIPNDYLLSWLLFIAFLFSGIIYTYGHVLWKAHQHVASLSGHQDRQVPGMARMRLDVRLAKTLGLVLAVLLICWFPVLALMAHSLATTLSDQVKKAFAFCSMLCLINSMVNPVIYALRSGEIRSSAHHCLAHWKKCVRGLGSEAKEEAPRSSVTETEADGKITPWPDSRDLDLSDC

Q: How did the Ki (FAAH [1]) turn out when O=S(=O)(F)CCCCCc1ccc(O)cc1 [AM3506] was run?
A: The Ki was 31 nM.

Q: And the Ki (CB1 cannabinoid receptor)?
A: The Ki was 192 nM.

Q: What about the Ki (CB2 cannabinoid receptor) of the same molecule?
A: The Ki was 5.77 µM.

Q: What about the MBP (conscious SHR; n=4, FIG. 4A) of the same molecule?
A: The MBP was “decrease MBP”.

Q: What about the heart rate (conscious SHR; n=4, FIG. 5A) of the same molecule?
A: The heart rate was “moderate bradycardia only at 1 mg/kg dose”.

Q: What about the “inhibition of FAAH in liver” value (FAAH [2]; AM3506 1 mg/kg) of the same molecule?
A: Its value is “devoid of inhibitory potency in liver”.

Q: What about the “dose equivalence in inhibition of FAAH in brain” value (FAAH [2]; AM3506 1 mg/kg versus URB597 10 mg/kg) of the same molecule?
A: Its value is “equieffective with 10 mg/kg URB597”.

Q: And the “reduction of hepatic FAAH activity” value (FAAH [3]; SHR)?
A: Its value is 11.1±0.04%.

Q: What about the “reduction of hepatic FAAH activity” value (FAAH [3]; WKY) of the same molecule?
A: Its value is 6.7±0.2%.

Q: What about the glucose intolerance [4] of the same molecule?
A: Its glucose intolerance is “had no such effect”.

— patent US8293724B2, “Therapeutic applications of fatty acid amide hydrolase inhibitors” (The United States of America, as represented by the …, priority 2007, dated 2012)
